17 compounds from patent publication US8921360B2, “Heterobicycle-substituted azolyl benzene fungicides” (priority 2009, dated 2014) can be followed below.

For series [1], the system named is Alternaria solani. As to the kind of experiment: Test G: tomato early blight, preventive spray on tomato seedlings. The note with it: Alternaria solani, topical, 168 h, tomato seedlings sprayed to run-off, inoculated next day, rated after 48 h + 5 days, read-out: Percentage Disease Control Test G. The class given is in vivo. The source says:
General protocol for preparing test suspensions for Tests A-G: the test compounds were first dissolved in acetone in an amount equal to 11% of the final volume and then suspended at the desired concentration (in ppm) in acetone and purified water (50/50 mix by volume) containing 250 ppm of the surfactant Trem® 014 (polyhydric alcohol esters). The resulting test suspensions were then used in Tests A-G. Spraying a 200 ppm test suspension to the point of run-off on the test plants was the equivalent of a rate of 800 g/ha. The test suspension was sprayed to the point of run-off on tomato seedlings. The following day the seedlings were inoculated with a spore suspension of Alternaria solani (the causal agent of tomato early blight) and incubated in a saturated atmosphere at 27° C. for 48 h, and then moved to a growth chamber at 24° C. for 5 days, after which time disease ratings were visually made. Results for Tests A-G are given in Table A. In the Table, a rating of 100 indicates 100% disease control and a rating of 0 indicates no disease control (relative to the controls). A dash (-) indicates no test results. All results are for 200 ppm except where followed by an “*”, which indicates 40 ppm.

Series [2] deals with Erysiphe graminis f. sp. tritici. As to the kind of experiment: Test A: wheat powdery mildew, preventive spray on wheat seedlings. It counts as in vivo. Conditions: Blumeria graminis, 192 h, wheat seedlings sprayed to run-off, inoculated next day, rated after 8 days, 100 = 100% disease control, 0 = no control, read-out: Percentage Disease Control Test A. The source says:
General protocol for preparing test suspensions for Tests A-G: the test compounds were first dissolved in acetone in an amount equal to 11% of the final volume and then suspended at the desired concentration (in ppm) in acetone and purified water (50/50 mix by volume) containing 250 ppm of the surfactant Trem® 014 (polyhydric alcohol esters). The resulting test suspensions were then used in Tests A-G. Spraying a 200 ppm test suspension to the point of run-off on the test plants was the equivalent of a rate of 800 g/ha. The test suspension was sprayed to the point of run-off on wheat seedlings. The following day the seedlings were inoculated with a spore dust of Erysiphe graminis f. sp. tritici, (the causal agent of wheat powdery mildew) and incubated in a growth chamber at 20° C. for 8 days, after which time disease ratings were visually made. Results for Tests A-G are given in Table A. In the Table, a rating of 100 indicates 100% disease control and a rating of 0 indicates no disease control (relative to the controls). A dash (-) indicates no test results. All results are for 200 ppm except where followed by an “*”, which indicates 40 ppm.

SMILES strings stand for the structures.

With `O=CNCc1cc(-c2ccn(-c3ccc4c(c3)CCCO4)n2)ccc1Cl` [Compound 3, N-[[2-chloro-5-[1-(3,4-dihydro-2H-1-benzopyran-6-yl)-1H-pyrazol-3-yl]-phenyl]methyl]formamide], the pest or weed control at 200 ppm in series [1] and in series [2] was 0% throughout.

For the compound `COC(=O)NCc1cc(-c2ccn(-c3ccc4c(c3)CC(O)CO4)n2)ccc1Cl` (stereo not shown) [Compound 30, methyl N-[[2-chloro-5-[1-(3,4-dihydro-3-hydroxy-2H-1-benzopyran-6-yl)-1H-pyrazol-3-yl]phenyl]methyl]carbamate], the melting point fell in the range of 136 to 138 °C. Moreover, the pest or weed control at 200 ppm in series [1] was 94%. Further, in series [2], the pest or weed control at 200 ppm was determined as 98%.

Turning to `COC(=O)NCc1cc(-n2ccc(-c3ccc4c(c3)OCCO4)n2)ccc1Cl` [Compound 7, methyl N-[[2-chloro-5-[3-(2,3-dihydro-1,4-benzodioxin-6-yl)-1H-pyrazol-1-yl]-phenyl]methyl]carbamate], the pest or weed control at 200 ppm came to 97% in series [1] and 100% in series [2].

For `COC(=O)NCc1cc(-n2ccc(-c3ccc4c(c3)OCO4)n2)ccc1Cl` [Compound 6, methyl N-[[5-[3-(1,3-benzodioxol-5-yl)-1H-pyrazol-1-yl]-2-chlorophenyl]-methyl]carbamate], the pest or weed control at 200 ppm in series [1] is 95%; in series [2], 100%.

`CC(=O)NCc1cc(-n2ccc(-c3ccc4c(c3)CCCO4)n2)ccc1Cl` [Compound 8, N-[[2-chloro-5-[3-(3,4-dihydro-2H-1-benzopyran-6-yl)-1H-pyrazol-1-yl]phenyl]methyl]acetamide]: the figures for the pest or weed control at 200 ppm in series [1] and in series [2] were 91% and 0%, respectively.

With `CNC(=O)NCc1cc(-n2ccc(-c3ccc4c(c3)CCCO4)n2)ccc1Cl` [Compound 9, N-[[2-chloro-5-[3-(3,4-dihydro-2H-1-benzopyran-6-yl)-1H-pyrazol-1-yl]phenyl]methyl]-N′-methylurea], the pest or weed control at 200 ppm in series [1] worked out at 9%; in series [2], 0%.

For `COC(=O)NCc1cc(-n2ccc(-c3ccc4c(c3)CCCO4)n2)ccc1Cl` [Compound 5, methyl N-[[2-chloro-5-[3-(3,4-dihydro-2H-1-benzopyran-6-yl)-1H-pyrazol-1-yl]phenyl]methyl]carbamate], the pest or weed control at 200 ppm came out at 0% in series [1] and 100% in series [2].

As to `COC(=O)NCc1cc(-n2ccc(-c3ccc4c(c3)CCCO4)n2)ccc1F` [Compound 11, methyl N-[[5-[3-(3,4-dihydro-2H-1-benzopyran-6-yl)-1H-pyrazol-1-yl]-2-fluorophenyl]methyl]carbamate], the melting point was 140 to 144 °C. Also, the pest or weed control at 200 ppm in series [1] came out at 40%. For the same compound, the pest or weed control at 200 ppm in series [2] was 100%.

Turning to `COC(=O)NCc1cc(-c2ccn(-c3ccc4c(c3)CCCO4)n2)ccc1F` [Compound 12, methyl N-[[5-[1-(3,4-dihydro-2H-1-benzopyran-6-yl)-1H-pyrazol-3-yl]-2-fluorophenyl]methyl]carbamate], the melting point was in the range of 134 to 138 °C. For the same compound, the pest or weed control at 200 ppm in series [1] came to 88%. The pest or weed control at 200 ppm in series [2] was 100%.

`COC(=O)NCc1cc(-c2ccn(-c3ccc4c(c3)CC(=O)CO4)n2)ccc1Cl` [Compound 29, methyl N-[[2-chloro-5-[1-(3,4-dihydro-3-oxo-2H-1-benzopyran-6-yl)-1H-pyrazol-3-yl]phenyl]methyl]carbamate] displayed a melting point of 104 to 106 °C. In addition, in series [1], the pest or weed control at 200 ppm came out at 17%. Moreover, in series [2], the pest or weed control at 200 ppm came out at 72%.

`COC(=O)NCc1cc(-c2ccn(-c3ccc4c(c3)CCCO4)n2)ccc1C` [Compound 20, methyl N-[[5-[1-(3,4-dihydro-2H-1-benzopyran-6-yl)-1H-pyrazol-3-yl]-2-methylphenyl]methyl]carbamate] gave a melting point of 161 to 162 °C. In series [1], the pest or weed control at 200 ppm was determined as 90%. Further, the pest or weed control at 200 ppm in series [2] came to 99%.

For `COC(=O)NCc1cc(-c2ccn(-c3ccc4c(c3)C=C(C(=O)O)CO4)n2)ccc1Cl` [Compound 24, 6-[3-[4-chloro-3-[[(methoxycarbonyl)amino]methyl]phenyl]-1H-pyrazol-1-yl]-2H-1-benzopyran-3-carboxylic acid], the melting point lay within 245 to 247 °C. In addition, the pest or weed control at 200 ppm in series [1] was 0%. For the same compound, the pest or weed control at 200 ppm in series [2] was determined as 0%.

With `COC(=O)NCc1cc(-n2ccc(-c3ccc4c(c3)CCCO4)n2)ccc1C` [Compound 25, methyl N-[[5-[3-(3,4-dihydro-2H-1-benzopyran-6-yl)-1H-pyrazol-1-yl]-2-methylphenyl]methyl]carbamate], the melting point fell in the range of 152 to 154 °C. In series [1], the pest or weed control at 200 ppm is 0%. Further, the pest or weed control at 200 ppm in series [2] came out at 100%.

On to `CNC(=O)NCc1cc(-c2ccn(-c3ccc4c(c3)CCCO4)n2)ccc1Cl` [Compound 4, N-[[2-chloro-5-[1-(3,4-dihydro-2H-1-benzopyran-6-yl)-1H-pyrazol-3-yl]-phenyl]methyl]-N′-methylurea], for which the pest or weed control at 200 ppm in series [1] and in series [2] was 0% throughout.

Turning to `CC(=O)NCc1cc(-c2ccn(-c3ccc4c(c3)CCCO4)n2)ccc1Cl` [Compound 2, N-[[2-chloro-5-[1-(3,4-dihydro-2H-1-benzopyran-6-yl)-1H-pyrazol-3-yl]-phenyl]methyl]acetamide], the results for the pest or weed control at 200 ppm in series [1] and in series [2] were 53% and 84%, respectively.

With `COC(=O)NCc1cc(-c2ccn(-c3ccc4c(c3)CC3(CO4)OCCO3)n2)ccc1Cl` [Compound 28, methyl N-[[2-chloro-5-(1-spiro[2H-1-benzopyran-3(4H), 2′-[1,3]dioxolan]-6-yl-1H-pyrazol-3-yl)phenyl]methyl]carbamate], the melting point lay within 70 to 73 °C. Besides, the pest or weed control at 200 ppm in series [1] turned out to be 90%. Besides, the pest or weed control at 200 ppm in series [2] is 99%.

`COC(=O)NCc1cc(-c2ccn(-c3ccc4c(c3)C=C(C(=O)OC)CO4)n2)ccc1Cl` [Compound 23, methyl 6-[3-[4-chloro-3-[[(methoxycarbonyl)amino]methyl]phenyl]-1H-pyrazol-1-yl]-2H-1-benzopyran-3-carboxylate] came in with a melting point of 185 to 187 °C. For the same compound, the pest or weed control at 200 ppm in series [1] was determined as 0%. In series [2], the pest or weed control at 200 ppm came out at 0%.

For orientation: melting point means the temperature of the solid-liquid transition.
